In ChEMBL document CHEMBL1128065, “Stereochemical preferences and requirement for the 3-hydroxyl group in novel anticonvulsant 4-fluorobenzoylamino benzopyrans” (1995):

Key:
Mus musculus = species: Mus musculus; test: Effect on percent increase in seizure threshold was evaluated by maximal electroshock threshold (MEST) test in mouse; format: functional
Rattus norvegicus = test: Tested for blood pressure fall on i.v. administration at a dose of 10 mg/kg infused over 30 minutes in pentobarbitone-anaesthetized hooded lister rats; format: functional; details: route intravenous

| SMILES | Increase (Mus musculus) [%] | BP (Rattus norvegicus) [%] |
| --- | --- | --- |
| CC1(C)Oc2ccc(C#N)cc2[C@H](NC(=O)c2ccc(F)cc2)[C@H]1O | 41 |  |
| CC1(C)Oc2ccc(C#N)cc2[C@@H](NC(=O)c2ccc(F)cc2)[C@@H]1O | 17 |  |
| CC1(C)CC(NC(=O)c2ccc(F)cc2)c2cc(C#N)ccc2O1 (configuration not stated) | 5 |  |
| CC1(C)Oc2ccc(C#N)cc2[C@@H](NC(=O)c2ccc(F)cc2)[C@H]1O | 0 | 36 |
| CC1(C)Oc2ccc(C#N)cc2[C@H](NC(=O)c2ccc(F)cc2)[C@@H]1O | 28 | 5 |
